The target in one data set is N5 (H12N5) neuraminidase (Influenza A virus, UniProt A1ILL9). In words: biochemical.
The target in a further data set is N2 (H3N2) neuraminidase (Influenza A virus, UniProt Q8AZ87). In words: biochemical.
In data set [1] the test system is H1N1 (A/Puerto Rico/8/34). In words: microbe, parasite or virus in culture. To be noted: read-out: EC50 H1N1. The class given is cell-based, influenza A virus.
In the next data set the test system is H3N2 (A/Moscow/10/99). The data set is described as follows: microbe, parasite or virus in culture. The class given is cell-based, influenza A virus. Conditions: read-out: EC50 H3N2.
The nature of the next data set: in vitro. To be noted: dog.

Read-outs that look alike come from different tables or passages of the source. Some results are limits rather than exact numbers.

Turning to `CCC(CC)O[C@@H]1C=C(C(=O)O)C[C@H](n2cc(-c3ccc(-c4ccccc4)cc3)nn2)[C@H]1NC(C)=O` [Compound 1a, (3R,4R,5S)-4-Acetamido-5-[4-(1,1′-biphenyl-4-yl)-1H-1,2,3-triazol-1-yl]-3-(pentan-3-yloxy)cyclohex-1-ene-1-carboxylic acid], the IC50 against N5 (H12N5) neuraminidase and at N2 (H3N2) neuraminidase was greater than 100 µM throughout.
In the case of `CCC(CC)O[C@@H]1C=C(C(=O)O)C[C@H](n2cc(-c3ccc(Oc4ccccc4)cc3)nn2)[C@H]1NC(C)=O` [Compound 1b, (3R,4R,5S)-4-Acetamido-3-(pentan-3-yloxy)-5-[4-(4-phenoxyphenyl)-1H-1,2,3-triazol-1-yl]cyclohex-1-ene-1-carboxylic acid], the IC50 on N5 (H12N5) neuraminidase and on N2 (H3N2) neuraminidase was greater than 100 µM throughout.
With `CCC(CC)O[C@@H]1C=C(C(=O)O)C[C@H](n2cc(COc3ccc4ccccc4c3)nn2)[C@H]1NC(C)=O` [Compound 1c, (3R,4R,5S)-4-Acetamido-5-[4-(2-naphthyloxy)methyl-1H-1,2,3-triazol-1-yl]-3-(pentan-3-yloxy)cyclohex-1-ene-1-carboxylic acid], the IC50 (commonly the point on the concentration scale where inhibition reaches its midpoint) was 1.66 ± 0.25 µM on N5 (H12N5) neuraminidase and 3.8 ± 0.65 µM at N2 (H3N2) neuraminidase.
The like results for `CCC(CC)O[C@@H]1C=C(C(=O)O)C[C@H](n2cc(-c3ccc(C)cc3)nn2)[C@H]1NC(C)=O` [Compound 1d, (3R,4R,5S)-4-Acetamido-5-[4-(4-methylphenyl)-1H-1,2,3-triazol-1-yl]-3-(pentan-3-yloxy)cyclohex-1-ene-1-carboxylic acid] were, in that order, 2.85 ± 1.28 µM and 4.41 ± 1.11 µM.
`CCC(CC)O[C@@H]1C=C(C(=O)O)C[C@H](n2cc(-c3ccccc3)nn2)[C@H]1NC(C)=O` [Compound 1e, (3R,4R,5S)-4-Acetamido-3-(pentan-3-yloxy)-5-(4-phenyl-1H-1,2,3-triazol-1-yl)cyclohex-1-ene-1-carboxylic acid] returned an IC50 on N5 (H12N5) neuraminidase of 12.9 ± 1.57 µM.
As for `CCC(CC)O[C@@H]1C=C(C(=O)O)C[C@H](n2cc(-c3ccc(C(=O)O)cc3)nn2)[C@H]1NC(C)=O` [Compound 1f, (3R,4R,5S)-4-Acetamido-5-[4-(4-carboxyphenyl)-1H-1,2,3-triazol-1-yl]-3-(pentan-3-yloxy)cyclohex-1-ene-1-carboxylic acid], the IC50 at N5 (H12N5) neuraminidase is 8.14 ± 1.12 µM.
On the same count and under the same terms, next, `CCC(CC)O[C@@H]1C=C(C(=O)O)C[C@H](n2cc(-c3cccc(C(=O)O)c3)nn2)[C@H]1NC(C)=O` [Compound 1g, (3R,4R,5S)-4-Acetamido-5-[4-(3-carboxyphenyl)-1H-1,2,3-triazol-1-yl]-3-(pentan-3-yloxy)cyclohex-1-ene-1-carboxylic acid]: 29.5 ± 8 µM; `CCC(CC)O[C@@H]1C=C(C(=O)O)C[C@H](n2cc(-c3ccccc3C(=O)O)nn2)[C@H]1NC(C)=O` [Compound 1h, (3R,4R,5S)-4-Acetamido-5-[4-(2-carboxyphenyl)-1H-1,2,3-triazol-1-yl]-3-(pentan-3-yloxy)cyclohex-1-ene-1-carboxylic acid]: 61.2 ± 23.7 µM.
Still for that read-out and setting: then `CCC(CC)O[C@@H]1C=C(C(=O)O)C[C@H](n2cc(-c3ccc(N)cc3)nn2)[C@H]1NC(C)=O` [Compound 1i, (3R,4R,5S)-4-Acetamido-5-[4-(4-aminophenyl)-1H-1,2,3-triazol-1-yl]-3-(pentan-3-yloxy)cyclohex-1-ene-1-carboxylic acid], with greater than 100 µM; and `CCC(CC)O[C@@H]1C=C(C(=O)O)C[C@H](n2cc(-c3cccc(N)c3)nn2)[C@H]1NC(C)=O` [Compound 1j, (3R,4R,5S)-4-Acetamido-5-[4-(3-aminophenyl)-1H-1,2,3-triazol-1-yl]-3-(pentan-3-yloxy)cyclohex-1-ene-1-carboxylic acid], with 3.6 ± 0.82 µM.
Still for that read-out and setting: then `CCC(CC)O[C@@H]1C=C(C(=O)O)C[C@H](n2cc(-c3ccccc3N)nn2)[C@H]1NC(C)=O` [Compound 1k, (3R,4R,5S)-4-Acetamido-5-[4-(2-aminophenyl)-1H-1,2,3-triazol-1-yl]-3-(pentan-3-yloxy)cyclohex-1-ene-1-carboxylic acid], with 0.52 ± 0.13 µM; and `CCC(CC)O[C@@H]1C=C(C(=O)O)C[C@H](n2cc(-c3ccc(N(C)C)cc3)nn2)[C@H]1NC(C)=O` [Compound 1l, (3R,4R,5S)-4-Acetamido-5-[4-(4-dimethylaminophenyl)-1H-1,2,3-triazol-1-yl]-3-(pentan-3-yloxy)cyclohex-1-ene-1-carboxylic acid], with 0.74 ± 0.18 µM.
In the case of `CCC(CC)O[C@@H]1C=C(C(=O)O)C[C@H](n2cc(-c3ccc(N(CC)CC)cc3)nn2)[C@H]1NC(C)=O` [Compound 1m, (3R,4R,5S)-4-Acetamido-5-[4-(4-diethylaminophenyl)-1H-1,2,3-triazol-1-yl]-3-(pentan-3-yloxy)cyclohex-1-ene-1-carboxylic acid], at N5 (H12N5) neuraminidase, the 50% inhibitory concentration (IC50) is greater than 100 µM.
Still for that read-out and setting: then `CCC(CC)O[C@@H]1C=C(C(=O)O)C[C@H](n2cc(COc3ccc(C[C@H](N)C(=O)O)cc3)nn2)[C@H]1NC(C)=O` [Compound 1n, (3R,4R,5S)-4-Acetamido-5-{4-{[4-((S)-2-amino-2-carboxyethyl)phenoxy]methyl}-1H-1,2,3-triazol-1-yl}-3-(pentan-3-yloxy)cyclohex-1-ene-1-carboxylic acid], with 6.95 ± 0.47 µM.
The same measure, in the same setting: next, `CCC(CC)O[C@@H]1C=C(C(=O)O)C[C@H](n2nncc2-c2ccccc2)[C@H]1NC(C)=O` [Compound 2e, (3R,4R,5S)-4-Acetamido-3-(pentan-3-yloxy)-5-(5-phenyl-1H-1,2,3-triazol-1-yl)cyclohex-1-ene-1-carboxylic acid]: 5.34 ± 0.45 µM; `CCC(CC)O[C@@H]1C=C(C(=O)O)C[C@H](n2nncc2-c2ccc(C(=O)O)cc2)[C@H]1NC(C)=O` [Compound 2f, (3R,4R,5S)-4-Acetamido-5-[5-(4-carboxyphenyl)-1H-1,2,3-triazol-1-yl]-3-(pentan-3-yloxy)cyclohex-1-ene-1-carboxylic acid]: 3.92 ± 0.69 µM; `CCC(CC)O[C@@H]1C=C(C(=O)O)C[C@H](n2nncc2-c2cccc(C(=O)O)c2)[C@H]1NC(C)=O` [Compound 2g, (3R,4R,5S)-4-Acetamido-5-[5-(3-carboxyphenyl)-1H-1,2,3-triazol-1-yl]-3-(pentan-3-yloxy)cyclohex-1-ene-1-carboxylic acid]: 2.04 ± 0.99 µM.
On the same count and under the same terms, next, `CCC(CC)O[C@@H]1C=C(C(=O)O)C[C@H](n2nncc2-c2ccccc2C(=O)O)[C@H]1NC(C)=O` [Compound 2h, (3R,4R,5S)-4-Acetamido-5-[5-(2-carboxyphenyl)-1H-1,2,3-triazol-1-yl]-3-(pentan-3-yloxy)cyclohex-1-ene-1-carboxylic acid]: 0.57 ± 0.13 µM; `CCC(CC)O[C@@H]1C=C(C(=O)O)C[C@H](n2nncc2-c2ccc(N)cc2)[C@H]1NC(C)=O` [Compound 2i, (3R,4R,5S)-4-Acetamido-5-[5-(4-aminophenyl)-1H-1,2,3-triazol-1-yl]-3-(pentan-3-yloxy)cyclohex-1-ene-1-carboxylic acid]: 0.25 ± 0.044 µM.
As for `CCC(CC)O[C@@H]1C=C(C(=O)O)C[C@H](n2nncc2-c2cccc(N)c2)[C@H]1NC(C)=O` [Compound 2j, (3R,4R,5S)-4-Acetamido-5-[5-(3-aminophenyl)-1H-1,2,3-triazol-1-yl]-3-(pentan-3-yloxy)cyclohex-1-ene-1-carboxylic acid], the EC50 (as a rule, the concentration at which the effect is half-maximal) in data set [1] (Influenza A virus, H1N1, MDCK, 72 h) was found to be 11.5 ± 2.69 µM; in the data set on H3N2 (A/Moscow/10/99) (Influenza A virus, H3N2, MDCK, 72 h), 7.65 ± 0.7 µM. This compound showed an IC50 at N5 (H12N5) neuraminidase of 0.045 ± 0.016 µM. The compound further came in with a CC50 in “in vitro” greater than 500 µM.
At N5 (H12N5) neuraminidase, `CCC(CC)O[C@@H]1C=C(C(=O)O)C[C@H](n2nncc2-c2ccccc2N)[C@H]1NC(C)=O` [Compound 2k, (3R,4R,5S)-4-Acetamido-5-[5-(2-aminophenyl)-1H-1,2,3-triazol-1-yl]-3-(pentan-3-yloxy)cyclohex-1-ene-1-carboxylic acid] displayed an IC50 of 0.41 ± 0.047 µM.
On the same count and under the same terms, next, `CCC(CC)O[C@@H]1C=C(C(=O)O)C[C@H](n2nncc2-c2ccc(N(C)C)cc2)[C@H]1NC(C)=O` [Compound 2l, (3R,4R,5S)-4-Acetamido-5-[5-(4-dimethylaminophenyl)-1H-1,2,3-triazol-1-yl]-3-(pentan-3-yloxy)cyclohex-1-ene-1-carboxylic acid]: 0.14 ± 0.016 µM; `CCC(CC)O[C@@H]1C=C(C(=O)O)C[C@H](n2nncc2-c2ccc(N(CC)CC)cc2)[C@H]1NC(C)=O` [Compound 2m, (3R,4R,5S)-4-Acetamido-5-[5-(4-diethylaminophenyl)-1H-1,2,3-triazol-1-yl]-3-(pentan-3-yloxy)cyclohex-1-ene-1-carboxylic acid]: greater than 100 µM.
The same measure, in the same setting: next, `CCC(CC)O[C@@H]1C=C(C(=O)O)C[C@H](n2nncc2COc2ccc(C[C@H](N)C(=O)O)cc2)[C@H]1NC(C)=O` [Compound 2n, (3R,4R,5S)-4-Acetamido-5-{5-{[4-((S)-2-amino-2-carboxyethyl)phenoxy]methyl}-1H-1,2,3-triazol-1-yl}-3-(pentan-3-yloxy)cyclohex-1-ene-1-carboxylic acid]: 2.43 ± 0.33 µM.
In the case of `CCC(CC)O[C@@H]1C=C(C(=O)O)C[C@H](N)[C@H]1NC(C)=O` [OSC, oseltamivir carboxylate, reference compound], the EC50 in data set [1] turned out to be 0.25 ± 0.081 µM; in the data set on H3N2 (A/Moscow/10/99) it was 0.43 ± 0.08 µM. This compound also came in with an IC50 at N5 (H12N5) neuraminidase of 0.00094 ± 0.0003 µM. In the data set “in vitro”, the CC50 was greater than 500 µM.

(Values after publication PMC8696196 (RSC Advances, 2021).)
